Laboratory results as given in paper PMC9643506 (Scientific Reports, 2022).
Like-named read-outs stand apart in the source and are kept apart here. Non-standard residues stand in square brackets, D forms with d. Residues, ends and D or L forms follow the SMILES beside them. No end group written: not given here. d2Nal = N[C@H](Cc1ccc2ccccc2c1)C(=O)O; αMeF = C[C@](N)(Cc1ccccc1)C(=O)O

How the values were obtained:
B1R = molecular target: T1, B1R (Homo sapiens, UniProt P46663); assay: IP-one (intracellular IP1) assay in T-REx 293/B1R cell line; assay type: cell-based
T1 construct: Thermo Fisher Scientific (T-REx 293 cells)
T1 sequence (P46663 1-353): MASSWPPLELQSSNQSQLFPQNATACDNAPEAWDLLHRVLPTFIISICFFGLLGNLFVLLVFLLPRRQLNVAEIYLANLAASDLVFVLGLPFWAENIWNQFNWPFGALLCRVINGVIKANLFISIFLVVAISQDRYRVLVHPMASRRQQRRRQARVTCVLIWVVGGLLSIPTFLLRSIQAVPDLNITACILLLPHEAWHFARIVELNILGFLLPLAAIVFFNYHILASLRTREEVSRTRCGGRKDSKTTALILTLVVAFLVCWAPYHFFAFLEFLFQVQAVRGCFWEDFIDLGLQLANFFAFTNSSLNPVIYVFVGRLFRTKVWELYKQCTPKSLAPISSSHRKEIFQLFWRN
Experimental: Cell culture and transfection.
(§1) The cell pellet was suspended in Hanks-HEPES (130 mM NaCl, 5.4 mM KCl, 1.8 mM CaCl2, 0.8 mM MgSO4, 0.9 mM NaH2PO4, 20 mM HEPES, LiCl 50 mM, and 3.25 mM glucose; pH 7.4).
Data were analyzed using GraphPad Prism version 5.04 for Windows (GraphPad software).

B1R in U87-MG cell line = assay: Functional assay: shift of BK dose-response curve by B1R antagonist, U87-MG cells; assay type: cell-based, human; conditions: antagonist 10 µM
Description: (§2) In further experiments, the U87-MG, SHP-77, and H4 cell lines were used for the functional assay with BK and the reference B1R antagonist. As shown in Fig. 13S in Supplementary File, all three cell lines expressed the functional B1R protein and its activity according to the mRNA level shown in Fig. 4. The obtained results are consistent with previous findings showing the expression of functional B1R and B2R genes and proteins in human glioblastoma cells U87-MG[32],[33]. In other studies, cellular expression of B1 and B2 receptors was detected in five different subtypes of human lung carcinomas (adenocarcinoma, squamous cell carcinoma, large cell carcinoma, small cell carcinoma, and carcinoid tumors)[34]. In addition, B2R has also been characterized in the cell line SHP-77[35]. However, to our knowledge, this is the first time that we have detected B1R and B2R gene expression in H4 cells of human brain neuroglioma and B1R in SHP-77 cells of human lung carcinoma.
(§3) Figure 13S. […] All three cell lines expressed the functional protein B1R.

B1R in SHP-77 cell line = assay: Functional assay: shift of BK dose-response curve by B1R antagonist, SHP-77 cells; assay type: cell-based, human; conditions: antagonist 10 µM
Description: as §2, §3

B1R in H4 cell line = assay: Functional assay: shift of BK dose-response curve by B1R antagonist, H4 cells; assay type: cell-based, human; conditions: antagonist 10 µM
Description: as §2, §3

mock T-REx 293 cell line = assay: IP1 assay in mock T-REx 293 cells without transfection of bradykinin receptors; assay type: cell-based, human; conditions: various doses of BK
Experimental: as §1

H4 cells = assay: MTT cytotoxicity assay, H4 cells; assay type: cell-based, human; conditions: 24 h treatment, mean ± SEM, n = 3 wells per experiment, 2–3 independent experiments
Experimental: (§4) Cisplatin, a cytostatic drug commonly used for cancer chemotherapy, was used as a reference compound.
(§5) The colorimetric tetrazolium salt assay with 3-([…]-2-yl)-2,5-diphenyltetrazolium bromide (MTT) was used to evaluate the cytotoxicity potential of the antagonists BK in the cancer cell lines H4, U87-MG, and SHP-77 (see Supporting Information for details)[52].
(§6) Cell lines were seeded at a concentration of 5000 cells/well (H4) and 10000 cells/well (U87-MG, SHP-77) in 96-well plates and incubated for 24 hours. […] These compounds were dissolved in redistilled water and added to the cultures at a final concentration of 0.1%. Twenty-four hours after treatment with the drugs, the MTT assay was performed according to the procedure described previously.^52 MTT solution was added to each well (at a final concentration of 0.15 mg/mL) and then incubated at 37°C for 30 minutes. Formosan crystals were resolved and measured at 570 nm using a 96-well microplate reader (Thermo Lab system Multiscan Spectrum). […] Data were analyzed using GraphPad Prism 7.04 software. Statistical differences were calculated using a one-way analysis of variance (ANOVA) followed by Tukey’s posthoc test. Values of p < 0.05 were considered significant.

U87-MG cells = assay: MTT cytotoxicity assay, U87-MG cells; assay type: cell-based, human; conditions: 24 h treatment, mean ± SEM, n = 3 wells per experiment, 2–3 independent experiments
Experimental: as §4, §5, §6

SHP-77 cells = assay: MTT cytotoxicity assay, SHP-77 cells; assay type: cell-based, human; conditions: 24 h treatment, mean ± SEM, n = 3 wells per experiment, 2–3 independent experiments
Experimental: as §4, §5, §6

[1] = test system: caspase-3 and PARP cleavage; assay: Western blot of caspase-3 activation and PARP cleavage in U87-MG, SHP-77 and H4 cells; assay type: cell-based, human; conditions: 24 h
Experimental: To verify whether the cytotoxic effects of the new B1R antagonists are mediated by apoptosis, the activation level of caspase-3, a key enzyme in the apoptosis process, and PARP protein, the caspase-3 substrate, were determined by Western blot analysis.
Cisplatin at 25 µM was used to induce control apoptosis. No significant change in the amount of cleaved PARP or caspase-3 activation was observed after B1R antagonist treatment compared with untreated cells (Fig. 5).
Figure 5 The effects of B1R antagonists and cisplatin on the expression levels of caspase-3 and PARP cleavage in cell lines U87-MG, SHP-77, and H4 were determined by Western blotting. 1. control cells; 2. cisplatin (25 μM); 3. […] BK11 (50 μM). […] Representative Western blot images showing expression of β-actin were used as a reference protein. Each picture represents a vertically cut part of nitrocellulose membranes. The membranes were cut before antibody application, considering the size margin according to the size of the molecular weight marker.
Western blot analysis was performed to evaluate the potential mechanism of cytotoxic activity of the antagonists of BK in cancer cell lines H4, U87-MG, and SHP-77 (see Supporting Information for details). Detection was performed using Pierce ECL Western blotting substrate (Thermo Fisher Scientific) and a Syngene GeneGnomeXRQ chemiluminescence analysis system. […]

| Compound | MTT, percentage of control, H4 (H4 cells; 25 µM) | MTT, percentage of control, H4 (H4 cells; 100 µM) | MTT, percentage of control, U87-MG (U87-MG cells; 25 µM) | MTT, percentage of control, U87-MG (U87-MG cells; 100 µM) | MTT, percentage of control, SHP-77 (SHP-77 cells; 25 µM) | MTT, percentage of control, SHP-77 (SHP-77 cells; 100 µM) | further results |
| --- | --- | --- | --- | --- | --- | --- | --- |
| CC[C@H](C)[C@H](NC(=O)[C@@H](Cc1ccc2ccccc2c1)NC(=O)[C@H](CO)NC(=O)[C@](C)(Cc1ccccc1)NC(=O)CNC(=O)[C@@H]1CCCN1C(=O)[C@@H]1CCCN1C(=O)[C@H](CCCNC(=N)N)NC(=O)[C@H](CCCCN)NC(C)=O)C(=O)O [R 892] (Ac-KRPPG[αMeF]S[d2Nal]I-OH; N-terminus and C-terminus assumed) | – | – | – | – | – | – | EC50 (B1R; T-REx 293/B1R cells, in the presence of EC80 BK (1250 nM), SD ± 66 nM, read-out: EC50 value for decrease of IP1 levels (B1R antagonist)): 69 nM; shift of BK EC50 after treatment with the B1R antagonist (B1R in U87-MG cell line): over 3 times; shift of BK EC50 after treatment with the B1R antagonist (B1R in SHP-77 cell line): 2,5 x; shift of BK EC50 after treatment with the B1R antagonist (B1R in H4 cell line): < 2 x |
| RPPGFSPFR-OH [BK, Bradykinin] | – | – | – | – | – | – | response in IP1 assay, mock cells (mock T-REx 293 cell line): did not respond |
| N=C(N)NCCC[C@H](NC(=O)[C@H](Cc1cccs1)NC(=O)[C@H]1CCCCN1C(=O)[C@H](CO)NC(=O)[C@H](Cc1cccs1)NC(=O)CNC(=O)[C@@H]1C[C@@H](O)CN1C(=O)[C@@H]1CCCN1C(=O)[C@H](CCCNC(=N)N)NC(=O)[C@@H](CCCNC(=N)N)NC(=O)CC12CC3CC(CC(C3)C1)C2)C(=O)O [BK11] | 94.235 ± 3.538 % of control | 65.668 ± 3.305 % of control | 96.125 ± 1.241 % of control | 81.07 ± 4.542 % of control | 96.421 ± 3.474 % of control | 85.391 ± 5.646 % of control | B1R screening, effect in the presence of BK (antagonist mode) (B1R; T-REx 293/B1R cells, 25 μM analog with BK at EC80): antagonistic effect; caspase-3 activation and PARP cleavage (Western blot) ([1]; 50 μM, compared with untreated control cells): no induction of caspase-3 and PARP |
| RPPGFSPFR [BK, Bradykinin] | – | – | – | – | – | – | EC50 (B1R): 1300 nM |
| N.N.[Cl][Pt][Cl] [Cisplatin] | 25.389 ± 3.71 % of control | 5.809 ± 1.488 % of control | 50.357 ± 4.97 % of control | 32.63 ± 6.934 % of control | 53.631 ± 12.052 % of control | 37.989 ± 11.626 % of control | caspase-3 activation and PARP cleavage (Western blot) ([1]; 25 μM, positive control of apoptosis): induction of caspase-3 and processed PARP fragments |
